The text below walks through data of patent publication US12319672B2, “Alpha-D-galactopyranoside derivatives” (Idorsia Pharmaceuticals Ltd, priority 2019, dated 2025).

The target in assay [1] is human Gal-1 (hGal-1). Put plainly: Competitive binding assay: binding of biotinylated hGal-1 to microplate-adsorbed asialofetuin (ASF). The following applies: Activities on hGal-1; mean values of several measurements. The method in brief:
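For hGal-1, a variant with all six cysteines replaced by serines is preferred. Either galectin, biotinylated at 300-1000 ng/mL, competes with compound for microplate-bound ASF over 3 h at 4° C; peroxidase/ABTS detection gives IC50, averaged.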

The target in assay [2] is human Gal-3 (hGal-3) (Homo sapiens (Human), UniProt P17931). Kind of assay: Competitive binding assay: binding of biotinylated hGal-3 to microplate-adsorbed asialofetuin (ASF). The following applies: Activity on hGal-3; mean values of several measurements. The method in brief: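 Compounds in DMSO dilution series competed with 300-1000 ng/mL biotinylated hGal-3 for asialofetuin adsorbed on the plate (3 h, 4° C). Streptavidin-peroxidase at 80 ng/mL (1 h, 4° C) with ABTS gave a spectrophotometric read-out, and IC50 was reported as the mean of repeat runs.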
human Gal-3 (hGal-3), sequence (P17931 whole entry): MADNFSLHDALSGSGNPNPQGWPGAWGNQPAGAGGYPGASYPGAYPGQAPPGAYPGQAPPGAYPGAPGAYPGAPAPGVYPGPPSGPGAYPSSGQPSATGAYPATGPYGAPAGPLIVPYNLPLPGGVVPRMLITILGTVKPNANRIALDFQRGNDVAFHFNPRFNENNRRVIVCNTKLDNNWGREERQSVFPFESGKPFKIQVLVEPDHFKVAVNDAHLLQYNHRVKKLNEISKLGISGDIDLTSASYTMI

human Gal-1 (hGal-1), sequence (P09382 2-135 limits assumed): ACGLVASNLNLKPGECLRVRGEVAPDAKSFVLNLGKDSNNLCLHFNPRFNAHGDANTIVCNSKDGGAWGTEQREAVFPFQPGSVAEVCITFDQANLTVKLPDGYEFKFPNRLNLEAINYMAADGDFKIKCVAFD

In the case of `CO[C@@H]1[C@@H](n2cc(-c3cc(F)c(F)c(F)c3)nn2)[C@@H](O)[C@@H](CO)O[C@@H]1Cc1cc(C2(O)CCC2)on1` [Ex 1.225], the IC50 (commonly the concentration that gives 50% inhibition) was found to be 4850 nM in assay [1] and 530 nM in assay [2].

With `CC(C)(C)OC(=O)N1CCC(C2=NOC(C[C@H]3O[C@H](CO)[C@H](O)[C@H](n4cc(-c5cc(F)c(Cl)cc5F)nn4)[C@H]3O)C2)CC1` (stereo partly drawn) [Ex 1.95], the figures for the IC50 in assay [1] and in assay [2] were 1210 nM and 190 nM, respectively.

For `CO[C@@H]1[C@@H](n2cc(-c3cc(F)c(F)c(F)c3)nn2)[C@@H](O)[C@@H](CO)O[C@@H]1Cn1cc(C2=CCCC2)nn1` [Example 4.42, (2R,3R,4S,5R,6R)-6-((4-(cyclopent-1-en-1-yl)-1H-1,2,3-triazol-1-yl)methyl)-2-(hydroxymethyl)-5-methoxy-4-(4-(3,4,5-trifluorophenyl)-1H-1,2,3-triazol-1-yl)tetrahydro-2H-pyran-3-ol], the IC50 in assay [1] turned out to be 2620 nM; in assay [2], 790 nM.

As to `CCOC(=O)N1CCC(c2cc(C[C@H]3O[C@H](CO)[C@H](O)[C@H](n4cc(-c5ccc(Cl)c(F)c5F)nn4)[C@H]3OC)no2)CC1` [Ex 1.203], the values for the IC50 in assay [1] and in assay [2] were 1780 nM and 26 nM, respectively.

With `CO[C@@H]1[C@@H](n2cc(-c3ccc(Cl)c(F)c3F)nn2)[C@@H](O)[C@@H](CO)O[C@@H]1Cc1cc(C2(C)CCCC2)on1` [Ex 1.275], the values for the IC50 in assay [1] and in assay [2] were 3300 nM and 110 nM, respectively.

Consider `CO[C@@H]1[C@@H](n2cc(-c3ccc(C)c(F)c3F)nn2)[C@@H](O)[C@@H](CO)O[C@@H]1Cc1cc(C2(O)CC2)on1` [Ex 1.319], for which the results for the IC50 in assay [1] and in assay [2] were 7160 nM and 140 nM, respectively.

Take `COC(=O)N1CCC(c2cc(C[C@H]3O[C@H](CO)[C@H](O)[C@H](n4cc(-c5cc(F)c(F)c(F)c5)nn4)[C@H]3OC)no2)CC1` [Example 3.32, methyl 4-(3-(((2R,3R,4S,5R,6R)-5-hydroxy-6-(hydroxymethyl)-3-methoxy-4-(4-(3,4,5-trifluorophenyl)-1H-1,2,3-triazol-1-yl)tetrahydro-2H-pyran-2-yl)methyl)isoxazol-5-yl)piperidine-1-carboxylate]: the IC50 in assay [1] came out at 610 nM; in assay [2] it was 46 nM.

With `CO[C@@H]1[C@@H](n2cc(-c3ccc(Cl)c(F)c3F)nn2)[C@@H](O)[C@@H](CO)O[C@@H]1Cc1cc(C(C)(C)CO)no1` [Ex 1.261], the IC50 is 1050 nM in assay [1] and 42 nM in assay [2].

On to `CO[C@@H]1[C@@H](n2cc(-c3cc(F)c(F)c(F)c3)nn2)[C@@H](O)[C@@H](CO)O[C@@H]1CC1CN(C2CCN(S(C)(=O)=O)CC2)C(=O)O1` (mixture of isomers) [Example 5.04, (RS)-5-(((2R,3R,4S,5R,6R)-5-hydroxy-6-(hydroxymethyl)-3-methoxy-4-(4-(3,4,5-trifluorophenyl)-1H-1,2,3-triazol-1-yl)tetrahydro-2H-pyran-2-yl)methyl)-3-(1-(methylsulfonyl)piperidin-4-yl)oxazolidin-2-one], for which the IC50 in assay [1] amounted to 790 nM; in assay [2], 180 nM.

Turning to `CC(C)O[C@@H]1[C@@H](n2cc(-c3cc(F)c(F)c(F)c3)nn2)[C@@H](O)[C@@H](CO)O[C@@H]1Cc1cc(C2CCNCC2)on1` [Example 2.24, (2R,3R,4S,5R,6R)-2-(hydroxymethyl)-5-isopropoxy-6-((5-(piperidin-4-yl)isoxazol-3-yl)methyl)-4-(4-(3,4,5-trifluorophenyl)-1H-1,2,3-triazol-1-yl)tetrahydro-2H-pyran-3-ol], the IC50 turned out to be 9610 nM in assay [1] and 990 nM in assay [2].

In the case of `CO[C@@H]1[C@@H](n2cc(-c3cc(F)c(F)c(F)c3)nn2)[C@@H](O)[C@@H](CO)O[C@@H]1Cc1cn(C2CCN(S(=N)(=O)C(C)(C)C)CC2)nn1` (stereo partly drawn) [Example 4.21, (2R,3R,4S,5R,6R)-2-(hydroxymethyl)-5-methoxy-6-((1-(1-(2-methylpropan-2-ylsulfonimidoyl)piperidin-4-yl)-1H-1,2,3-triazol-4-yl)methyl)-4-(4-(3,4,5-trifluorophenyl)-1H-1,2,3-triazol-1-yl)tetrahydro-2H-pyran-3-ol], the IC50 in assay [1] worked out at 86 nM; in assay [2] it was 19 nM.

Take `CO[C@@H]1[C@@H](n2cc(-c3cc(F)c(F)c(F)c3)nn2)[C@@H](O)[C@@H](CO)O[C@@H]1Cc1cc(C2CCC(=O)NC2)no1` (stereo partly drawn) [Ex 1.114]: the IC50 in assay [1] turned out to be 1360 nM; in assay [2], 75 nM.

With `CO[C@@H]1[C@@H](n2cc(-c3cc(F)c(F)c(F)c3)nn2)[C@@H](O)[C@@H](CO)O[C@@H]1Cn1cc(C2CCOCC2)nn1` [Example 4.40, (2R,3R,4S,5R,6R)-2-(hydroxymethyl)-5-methoxy-6-((4-(tetrahydro-2H-pyran-4-yl)-1H-1,2,3-triazol-1-yl)methyl)-4-(4-(3,4,5-trifluorophenyl)-1H-1,2,3-triazol-1-yl)tetrahydro-2H-pyran-3-ol], the IC50 in assay [1] turned out to be 3920 nM; in assay [2] it was 160 nM.

Regarding `O=c1[nH]c2ccc(C3=NO[C@@H](C[C@H]4O[C@H](CO)[C@H](O)[C@H](n5cc(-c6cc(F)c(F)c(F)c6)nn5)[C@H]4O)C3)cc2o1` [Ex 1.31], the IC50 in assay [1] is 13500 nM; in assay [2] it was 1130 nM.

`CO[C@@H]1[C@@H](n2cc(-c3cc(F)c(F)c(F)c3)nn2)[C@@H](O)[C@@H](CO)O[C@@H]1Cc1cc(C2(C)CCOCC2)no1` [Ex 1.282]: the values for the IC50 in assay [1] and in assay [2] were 1770 nM and 110 nM, respectively.

Regarding `CO[C@@H]1[C@@H](n2cc(-c3cc(F)c(F)c(F)c3)nn2)[C@@H](O)[C@@H](CO)O[C@@H]1Cc1cc(C2(F)CC2)no1` [Ex 1.213], the IC50 in assay [1] worked out at 1550 nM; in assay [2] it was 160 nM.

As to `CO[C@@H]1[C@@H](n2cc(-c3cc(F)c(F)c(F)c3)nn2)[C@@H](O)[C@@H](CO)O[C@@H]1Cn1cc(C2CCCC2)nn1` [Example 4.48, (2R,3R,4S,5R,6R)-6-((4-cyclopentyl-1H-1,2,3-triazol-1-yl)methyl)-2-(hydroxymethyl)-5-methoxy-4-(4-(3,4,5-trifluorophenyl)-1H-1,2,3-triazol-1-yl)tetrahydro-2H-pyran-3-ol], the concentration for half-maximal inhibition (IC50) stood at 2860 nM in assay [1] and 250 nM in assay [2].

`CO[C@@H]1[C@@H](n2cc(-c3ccc(Cl)c(F)c3F)nn2)[C@@H](O)[C@@H](CO)O[C@@H]1Cc1cc(C2CCC2)on1` [Ex 1.227]: the IC50 in assay [1] was determined as 16600 nM; in assay [2] it was 77 nM.

With `CC(C)(C)OC(=O)N1CCC(C2=NOC(C[C@H]3O[C@H](CO)[C@H](O)[C@H](n4cc(-c5ccc(C(F)(F)F)c(F)c5)nn4)[C@H]3O)C2)CC1` (stereo partly drawn) [Ex 1.103], the IC50 turned out to be 9820 nM in assay [1] and 450 nM in assay [2].

In the case of `CO[C@@H]1[C@@H](n2cc(-c3cc(F)c(F)c(F)c3)nn2)[C@@H](O)[C@@H](CO)O[C@@H]1Cc1cc(C2(C)CCCC2)no1` [Ex 1.286], the figures for the IC50 in assay [1] and in assay [2] were 3080 nM and 230 nM, respectively.

`CO[C@@H]1[C@@H](n2cc(-c3cc(F)c(F)c(F)c3)nn2)[C@@H](O)[C@@H](CO)O[C@@H]1Cc1cc(C2CCN(C(=O)C(C)(C)C)CC2)on1` [Example 3.34, 1-(4-(3-(((2R,3R,4S,5R,6R)-5-hydroxy-6-(hydroxymethyl)-3-methoxy-4-(4-(3,4,5-trifluorophenyl)-1H-1,2,3-triazol-1-yl)tetrahydro-2H-pyran-2-yl)methyl)isoxazol-5-yl)piperidin-1-yl)-2,2-dimethylpropan-1-one]: the IC50 in assay [1] was found to be 1510 nM; in assay [2] it was 120 nM.
